One experiment relates to Bacillus coagulans, subspecies Hammer (ATCC-31284). The experiment can be described thus: Kirby-Bauer antibiotic susceptibility testing of Bacillus coagulans. It counts as cell-based. The following applies: inhibition zone diameter (disk diffusion). For orientation: A growth-free zone around the sample is the usual read-out of agar diffusion tests.
Turning to `CC1(C)S[C@@H]2[C@H](NC(=O)[C@H](N)c3ccccc3)C(=O)N2[C@H]1C(=O)O` [ampicillin], the “Susceptibility of Bacillus coagulans to the antibiotic, Kirby-Bauer testing” value (shortened to “Susceptibility … Kirby-Bauer testing”) is “Susceptible”.

For `O=C(O)c1cn(C2CC2)c2cc(N3CCNCC3)c(F)cc2c1=O` [ciprofloxacin], the “Susceptibility … Kirby-Bauer testing” value is reported as “Susceptible”.

For the compound `CC[C@H]1OC(=O)[C@H](C)[C@@H](O[C@H]2C[C@@](C)(OC)[C@@H](O)[C@H](C)O2)[C@H](C)[C@@H](O[C@@H]2O[C@H](C)C[C@H](N(C)C)[C@H]2O)[C@](C)(O)C[C@@H](C)C(=O)[C@H](C)[C@@H](O)[C@]1(C)O` [erythromycin], the “Susceptibility … Kirby-Bauer testing” value was “Susceptible”.

As to `Cc1onc(-c2ccccc2)c1C(=O)N[C@@H]1C(=O)N2[C@@H]1SC(C)(C)[C@@H]2C(=O)O` [oxacillin], the “Susceptibility … Kirby-Bauer testing” value is given as “Susceptible”.

As to `CO[C@H]1/C=C/O[C@@]2(C)Oc3c(C)c(O)c4c(O)c(c(/C=N/N5CCN(C)CC5)c(O)c4c3C2=O)NC(=O)/C(C)=C\C=C\[C@H](C)[C@H](O)[C@@H](C)[C@@H](O)[C@@H](C)[C@H](OC(C)=O)[C@@H]1C` [rifampin], the “Susceptibility … Kirby-Bauer testing” value is reported as “Susceptible”.

On to `CN[C@H](CC(C)C)C(=O)N[C@H]1C(=O)N[C@@H](CC(N)=O)C(=O)N[C@H]2C(=O)N[C@H]3C(=O)N[C@H](C(=O)N[C@H](C(=O)O)c4cc(O)cc(O)c4-c4cc3ccc4O)[C@H](O)c3ccc(c(Cl)c3)Oc3cc2cc(c3O[C@@H]2O[C@H](CO)[C@@H](O)[C@H](O)[C@H]2O[C@H]2C[C@](C)(N)[C@H](O)[C@H](C)O2)Oc2ccc(cc2Cl)[C@H]1O` [vancomycin], for which the “Susceptibility … Kirby-Bauer testing” value is recorded as “Susceptible”.

For the compound gentamicin, the “Susceptibility … Kirby-Bauer testing” value was “Susceptible”.

In the case of trimethoprim-sulfamethoxazole, the “Susceptibility … Kirby-Bauer testing” value is reported as “Susceptible”.

The test system is the same in a further experiment. The experiment can be described thus: Vitek machine-based antibiotic susceptibility testing of Bacillus coagulans. Format: cell-based. The following applies: 500 μg/ml.
As for gentamicin, the “Susceptibility of Bacillus coagulans to the antibiotic, Vitek testing” value (“Susceptibility … Vitek testing” below) is listed as “Susceptible”.

The same experiment, now with this note: 2,000 μg/ml.
As to `[H]/N=C(/N)N[C@H]1[C@H](O)[C@@H](O)[C@H](O[C@@H]2O[C@@H](C)[C@](O)(C=O)[C@H]2O[C@@H]2O[C@@H](CO)[C@H](O)[C@@H](O)[C@@H]2NC)[C@@H](N/C(N)=N\[H])[C@@H]1O` [streptomycin], the “Susceptibility … Vitek testing” value is “Susceptible”.

Staying with this experiment, now noted: optical density of culture.
Consider `O=C(N[C@H](CO)[C@H](O)c1ccc([N+](=O)[O-])cc1)C(Cl)Cl` [chloramphenicol], for which the “Susceptibility … Vitek testing” value was “Susceptible”.

Consider `CCn1cc(C(=O)O)c(=O)c2cc(F)c(N3CCNCC3)cc21` [norfloxacin], for which the “Susceptibility … Vitek testing” value is recorded as “Susceptible”.

Consider `CN[C@H](CC(C)C)C(=O)N[C@H]1C(=O)N[C@@H](CC(N)=O)C(=O)N[C@H]2C(=O)N[C@H]3C(=O)N[C@H](C(=O)N[C@H](C(=O)O)c4cc(O)cc(O)c4-c4cc3ccc4O)[C@H](O)c3ccc(c(Cl)c3)Oc3cc2cc(c3O[C@@H]2O[C@H](CO)[C@@H](O)[C@H](O)[C@H]2O[C@H]2C[C@](C)(N)[C@H](O)[C@H](C)O2)Oc2ccc(cc2Cl)[C@H]1O` [vancomycin], for which the “Susceptibility … Vitek testing” value is recorded as “Susceptible”.

Take penicillin: the “Susceptibility … Vitek testing” value is “Susceptible”.

(Values after patent publication US6849256B1, “Inhibition of pathogens by probiotic bacteria” (priority 1999, dated 2005).)
